Converted amounts (≈) assume the structure as drawn. Like-named read-outs stand apart in the source and are kept apart here.
Tests used:
[1] = early investigation (ref. vii); cited from earlier work
[2] = system: Gram-positive bacteria; assay type: cell-based; conditions: for antibiotic activity (in words): relative to (−)-himastatin (1) where a derivative
Method: (§1) Bacillus subtilis subsp. spizizenii (ATCC 6633) and Streptomyces himastatinicus (ATCC 53653) were obtained from the American Type Culture Collection (ATCC). Methicillin-resistant and methicillin-susceptible Staphylococcus aureus (Newman), and vancomycin-resistant (V583) and vancomycin-susceptible (T7) Enterococcus faecalis were obtained from the lab of Dr. Roby P. Bhattacharyya (Massachusetts General Hospital).^6 B. subtilis was grown in brain-heart infusion (BHI) medium at 37° C., S. himastatinicus was grown in tryptone-yeast extract broth (ISP medium 2) at 28° C., E. faecalis was grown in Todd-Hewitt broth, and all other organisms were grown in lysogeny broth (LB) medium at 37° C.
(§2) Minimum inhibitory concentration (MIC) was determined using the broth microdilution method. 20-fold stocks of compound in DMSO were diluted 10-fold in MHB medium and 100 μL of each were added to the first well of a 96-well plate. 50 μL of the first well was then serially diluted through 50 μL MHB medium in wells 2-11. To prepare the bacterial culture, an overnight culture was diluted in MHB until the turbidity matched that of McFarland standard 0.5. Then, the culture was diluted 1:100 and added to wells 1-11, resulting in 2-fold dilutions of antibiotic beginning at 64 μg/mL and a final inoculum of 5×10^5 cfu/mL. 100 μL of MHB medium was added to well 12 as a sterility control, and a row containing no antibiotic was used as a growth control. The plate was incubated at the organism's respective growth temperature overnight (B. subtilis) or 72 h (S. himastatinicus) and the MIC was determined using OD600.
(§3) Minimum inhibitory concentration (MIC) was determined using the broth microdilution method.^7 20-fold (1.28 mg/mL) stocks of compound in dimethylsulfoxide, stored as frozen (−80° C.) 30-μL aliquots, were diluted 10-fold in Mueller Hinton broth (MHB) and a 100-μL sample of each was added to the first well of a 96-well plate. A 50-μL sample of the first well was then serially diluted two-fold through 50-μL NMB medium in wells 2-11. A bacterial culture was prepared from a frozen (−80° C.) stock in the organism's respective growth medium and grown overnight. The culture was then diluted in MHB until the turbidity matched that of McFarland standard 0.5 by measuring the optical density at 600 nm (1×10^8 cfu/mL). Then, the culture was diluted 1:100 and a 50-μL aliquot was added to wells 1-11, resulting in 2-fold dilutions of antibiotic from 64 μg/mL down to 0.0625 μg/mL and a final inoculum of 5×10^5 cfu/mL. A 100-μL aliquot of MHB medium was added to well 12 as a sterility control, and a row containing no antibiotic was used as a growth control. The plate was incubated at the organism's respective growth temperature overnight or 72 h (S. himastatinicus). The MIC was determined by observing the well density by eye and, with the exception of S. himastatinicus which grows in solid colonies in media, was confirmed by measuring the optical density of each well at 600 nm. At least two assays were conducted for each organism on identical lots of compound. No degradation of compound stocks in dimethylsulfoxide was observed by LC-MS analysis after being subjected to multiple freeze-thaw cycles.

[3] = system: Bacillus subtilis (ATCC 6633); assay type: cell-based
Method: as §1, §2, §3

[4] = system: B. subtilis (ATCC 6633); experiment: Microscopy of membrane morphology at sub-lethal concentration, FM 4-64 stain; assay type: cell-based, Bacillus subtilis; conditions: sub-lethal concentration 0.25 μg/mL, 3 h at 37 °C
Method: B. subtilis (ATCC 6633) was used for all microscopy experiments. For time-course studies at lethal concentration, culture containing 1 μg/mL FM 4-64 was combined with medium containing himastatin before being immediately added to a 1% agarose pad containing 0.5 μg/mL sytox green (Invitrogen). One section of the agarose pad was then imaged every 5 minutes to monitor cell death. For studies of morphological changes in sub-lethal concentrations, culture was incubated with 0.25 μg/mL (−) or (+)-himastatin for 3 h at 37 C, before being combined with FM 4-64 and added to an agarose pad containing sytox green. Images were collected on a Zeiss AxioPlan2 upright microscope using phase-contrast and equipped with a Hamamatsu Orca-ER cooled CCD camera using standard filter sets for GFP (to visualize SYTOX green; excitation 470/40 nm and emission 525/50 nm), TxRED (to visualize FM 4-64; excitation 565/40 and emission 620/60 nm), and DIC (for phase-contrast). Additional imaged were collected with an RPI Spinning Disk Confocal microscope equipped with a Hamamatsu Orca-ER cooled CCD camera using standard filter sets for GFP (488 nm laser, emission 525/50 nm), RFP (561 nm laser, emission 605/70 nm), and brightfield.
B. subtilis (ATCC 6633) in Mueller Hinton broth (NMB) was used for all microscopy experiments. For time-course studies with natural himastatin at lethal concentration, a bacterial culture matching the optical density of McFarland standard 0.5 (1×10^8 cfu/mL) was supplemented with 1 μg/mL FM 4-64 before being combined with medium containing (−)- or (+)-himastatin (1) (2 μg/mL) immediately before imaging on a 1% agarose pad containing 0.5 μg/mL SYTOX Green (Invitrogen). One section of the agarose pad was then imaged every 5 min to monitor cell death. For studies of morphological changes in bacteria treated with sub-lethal concentrations, culture was incubated with 0.25 μg/mL (−)- or (+)-himastatin (1) for 3 h at 37° C., before being supplemented with 1 μg/mL FM 4-64 and added immediately to an agarose pad. […]

[5] = system: Vancomycin-Sensitive E. faecalis (T7); assay type: cell-based, Enterococcus faecalis
Method: as §1, §2, §3

[6] = system: Streptomyces himastatinicus (ATCC 53653); assay type: cell-based
Method: as §1, §2, §3

[7] = system: Vancomycin-Resistant Enterococcus faecalis (V583); assay type: cell-based
Method: as §1, §2, §3

[8] = system: Methicillin-Resistant Staphylococcus aureus; assay type: cell-based
Method: as §1, §2, §3

[9] = system: Methicillin-Sensitive S. aureus (Newman); assay type: cell-based, Staphylococcus aureus
Method: as §1, §2, §3

CC(C)C[C@@H]1NC(=O)[C@H]2C[C@@H](O)CNN2C(=O)[C@H](C(C)C)OC(=O)[C@@H](C(C)C)NC(=O)[C@@H]2C[C@@]3(O)c4cc(-c5ccc6c(c5)[C@]5(O)C[C@H]7C(=O)N[C@H](C(C)C)C(=O)O[C@@H](C(C)C)C(=O)N8NC[C@H](O)C[C@@H]8C(=O)N[C@@H](CC(C)C)C(=O)N[C@H]([C@H](C)O)C(=O)N7[C@@H]5N6)ccc4N[C@H]3N2C(=O)[C@@H]([C@H](C)O)NC1=O [(−)-1, (−)-Himastatin, reference compound]
antibiotic activity in the presence of sodium salts of phospholipids and fatty acids [1]: reduced | MIC values [2]: 1 to 2 µg/mL | antibiotic activity (in words) [2]: potent antibiotic activity | MIC in Bacillus subtilis ([3]; text and figure legend): 1 µg/mL (≈ 0.673 µM) | membrane morphology (FM 4-64) [4]: visual membrane defects

CC(C)C[C@H]1NC(=O)[C@@H]2C[C@H](O)CNN2C(=O)[C@@H](C(C)C)OC(=O)[C@H](C(C)C)NC(=O)[C@H]2C[C@]3(O)c4cc(-c5ccc6c(c5)[C@@]5(O)C[C@@H]7C(=O)N[C@@H](C(C)C)C(=O)O[C@H](C(C)C)C(=O)N8NC[C@@H](O)C[C@H]8C(=O)N[C@H](CC(C)C)C(=O)N[C@@H]([C@@H](C)O)C(=O)N7[C@H]5N6)ccc4N[C@@H]3N2C(=O)[C@H]([C@@H](C)O)NC1=O [(+)-1, Ent-Himastatin]
MIC (μg/mL) VSE faecalis ([5]; broth microdilution, Vancomycin-Sensitive E. faecalis (T7), n ≥ 2): 1 µg/mL (≈ 0.673 µM) | MIC (μg/mL) B. subtilis ([3]; broth microdilution, Bacillus subtilis (ATCC 6633), growth inhibition determined by eye, n ≥ 2): 0.5 µg/mL (≈ 0.337 µM) | activity against the producing organism Streptomyces himastatinicus (in words) [6]: completely evade its own resistance mechanism and inhibit its growth | MIC (μg/mL) S. himastatinicus ([6]; broth microdilution, Streptomyces himastatinicus (ATCC 53653), 72 h, n ≥ 2): 0.5 µg/mL (≈ 0.337 µM) | fold more active in inhibiting the growth of Streptomyces himastatinicus compared to (−)-himastatin (1) ([6]; relative to (−)-himastatin (1)): 4-8 fold | MIC (μg/mL) VRE faecalis ([7]; broth microdilution, Vancomycin-Resistant Enterococcus faecalis (V583), n ≥ 2): 2 µg/mL (≈ 1.35 µM) | MIC (μg/mL) MRSA ([8]; broth microdilution, Methicillin-Resistant Staphylococcus aureus, n ≥ 2): 4 µg/mL (≈ 2.69 µM) | MIC (μg/mL) MSSA ([9]; broth microdilution, Methicillin-Sensitive S. aureus (Newman), n ≥ 2): 2 µg/mL (≈ 1.35 µM) | membrane morphology (FM 4-64) ([4]; listed as (+)-ent-himastatin): identical | membrane morphology (FM 4-64) ([4]; listed as ent-(+)-himastatin): visual membrane defects

CC(C)C[C@@H]1NC(=O)[C@H]2C[C@@H](O)CNN2C(=O)[C@H](C(C)C)NC(=O)[C@@H](C(C)C)NC(=O)[C@@H]2C[C@@]3(O)c4cc(-c5ccc6c(c5)[C@]5(O)C[C@H]7C(=O)N[C@H](C(C)C)C(=O)N[C@@H](C(C)C)C(=O)N8NC[C@H](O)C[C@@H]8C(=O)N[C@@H](CC(C)C)C(=O)N[C@H]([C@H](C)O)C(=O)N7[C@@H]5N6)ccc4N[C@H]3N2C(=O)[C@@H]([C@H](C)O)NC1=O [(−)-26, Himastatin Lactam Derivative]
MIC (μg/mL) VSE faecalis ([5]; Vancomycin-Sensitive (T7)): 16 µg/mL (≈ 10.8 µM) | antibiotic activity (in words) [2]: modest reduction in antibiotic activity | antibiotic activity (in words) ([2]; listed as (−)-15): decreasing antibiotic activity | MIC (μg/mL) B. subtilis ([3]; ATCC 6633): 8 µg/mL (≈ 5.39 µM) | MIC (μg/mL) S. himastatinicus ([6]; ATCC 53653, 72 h): >64 µg/mL | MIC (μg/mL) VRE faecalis ([7]; Vancomycin-Resistant (V583)): 32 µg/mL (≈ 21.6 µM) | MIC (μg/mL) MRSA ([8]; Methicillin-Resistant): 32 µg/mL (≈ 21.6 µM) | MIC (μg/mL) MSSA ([9]; Newman): 16 µg/mL (≈ 10.8 µM)

— US12030888B2, “Himastatin derivatives, and processes of preparation thereof, and uses thereof” (priority 2021, dated 2024)
